{"source": "paper PMC11291853", "about": "“Haemodynamic, hormonal and renal actions of osteocrin in normal sheep” (Experimental Physiology, 2024)", "origin": "cited, not measured here", "key": {"NPR-C": {"biological_target": "NPR-C", "settings": "purified ovine lung tissue membranes; ref Smith et al., 2000; read-out: K d, binding affinity to NPR-C; cited from earlier work", "method": "Actions of OSTN on muscle cells (Subbotina et al., [2015]) and cartilage/bone (Moffatt et al., [2007]; Thomas et al., [2003]) have been studied, whereas few reports have examined the impact of the peptide on plasma concentrations of NPs and on cardiovascular and renal tissues. A crucial issue is the ability of OSTN, in tissues and in plasma, to impact NP concentrations in health or disease. In mice, constant infusion of the 10 kDa peptide [proOSTN (30–130)] at doses of 10 μg/kg/min (∼1000 pmol/kg/min) increased endogenous plasma ANP (by ∼15 pmol/L), similar to increments evoked by administrati ..."}, "people": {"system": "people", "set-up": "method as in Hirata et al., 1990", "settings": "exogenous ANP infusions achieving plasma concentrations of ∼150 pmol/L, ref Hirata et al., 1990; cited from earlier work"}, "[1]": {"settings": "sheep; at comparable circulating concentrations (∼30 pmol/L); ref Charles, Espiner, Richards et al., 1996; cited from earlier work", "from_the_text": "To our knowledge, the metabolism of the 5 kDa OSTN has not been studied previously in vivo. […] Consistent with this is the longer half‐l ..."}}}
{"substance": "ANP: atrial natriuretic peptide", "values": [{"measurement": "Kd", "setting": "NPR-C", "result": "0.008 to 0.016", "unit": "nM"}, {"measurement": "Increase in nephrogenous cGMP", "setting": "people", "result": 10, "unit": "fold"}, {"measurement": "Clearance rate (MCR)", "setting": "[1]", "result": 5.7, "unit": "L/min"}]}
